Measurements published in patent publication US20160101072A1, “Therapeutic uses of enzyme inhibitors” (Proximagen Limited, priority 2013, published 2016).
Marks after values point to notes of the source that are not given here.

Key:
[1] = system: CD11b+Ly6Chigh profibrotic : CD11b+Ly6Clow anti-fibrotic myeloid cells; experiment: Ratio of profibrotic to anti-fibrotic myeloid cells in mdx mouse muscle; assay type: in vivo; settings: both doses
Description: In this example, labelled antibodies were used to assess infiltration of inflammatory myeloid and lymphoid cells into muscles of mdx mice following treatment of the mice with different doses of the glucocorticoid prednisolone, and the VAP-1 inhibitors carbidopa and benserazide. […] Labelled antibody to CD11b was used to assess infiltration of inflammatory myeloid cells into muscles of mdx mice. Labelled antibody to Ly6C was used to assess infiltration of pro- and anti-inflammatory monocytes into muscles of mdx mice. Labelled antibody to CD4 and CD8a antigen was used to assess infiltration of Th cells (CD4^+CD8^−) and double negative (CD4^−CD8^−) T cells into muscles of mdx mice.
A total of a ninety C57BU10ScSn-Dmdmdx/J male mice, 3 weeks of age (+/−3days), were transferred to the in vivo research laboratory in Bar Harbor, Me. Additional ten C57BU10ScSnJ male mice 3 weeks of age (+/−3 days) were also transferred and served as a wild-type control group. The mice were ear notched for identification and housed in ventilated polysulfone cages with HEPA filtered air at a density of 3-4 mice per cage. […]

[2] = system: diaphragms of mdx mice; experiment: H & E staining of diaphragm sections of mdx mice (inflammatory infiltrates); assay type: in vivo, mouse; settings: 20 mg/kg po once per day, 6 weeks, 12 week old mdx mice
Description: (§1) The most studied animal model for DMD is the mdx mouse. This was first described by Bulfield et al (Proc. Natl. Acad. Sci. USA, 1984, 81:1189-1192). It has a point mutation within its dystrophin gene, and as a result the mouse has no functional dystrophin in its muscles. […] As it ages, certain muscle types (including the diaphragm) show weakness and increased fibrosis. […] This provides a quantitative framework for studying the pathogenesis of dystrophy (Stedman et al, Nature, 1991, 352, 536-539).
(§2) 12 week old mdx mice were treated with benserazide (20 mg/kg, po, once per day) or vehicle (water, once per day), in groups of 8 mice. After 6 weeks of treatment, diaphragms of the mice were collected and flash frozen in liquid nitrogen-cooled isopentane. The sections were stored on slides at −20° C. until required.
(§3) Hematoxylin and eosin (H & E) staining was used to show cytoplasmic, nuclear, and extracellular matrix features. Hematoxylin stains nucleic acids, and eosin stains proteins nonspecifically. Staining of F4/80 antigen (a glycoprotein expressed by murine macrophages) was used to show macrophages.

[3] = system: CD11b+Ly6Clow anti-fibrotic myeloid cells (Ly6C- monocytes); experiment: Cell sorting: recruitment of CD11b+Ly6Clow anti-fibrotic myeloid cells into muscles of mdx mice; assay type: in vivo, mouse; settings: for % change compared to vehicle (CD11b+Ly6Clow anti-fibrotic myeloid cells) / % of viable cells (CD11b+Ly6Clow anti-fibrotic myeloid cells): 4 weeks, mdx mice muscle
Description: (§4) In this example, labelled antibodies were used to assess infiltration of inflammatory myeloid and lymphoid cells into muscles of mdx mice following treatment of the mice with different doses of the glucocorticoid prednisolone, and the VAP-1 inhibitors carbidopa and benserazide. CD11b is a transmembrane glycoprotein which is expressed on the surface of granulocytes (including neutrophils and eosinophils), monocytes, NK cells, dendritic cells, tissue macrophages and subsets of T and B cells. Labelled antibody to CD11b was used to assess infiltration of inflammatory myeloid cells into muscles of mdx mice. Labelled antibody to Ly6C was used to assess infiltration of pro- and anti-inflammatory monocytes into muscles of mdx mice. Labelled antibody to CD4 and CD8a antigen was used to assess infiltration of Th cells (CD4^+CD8^-) and double negative (CD4^-CD8^-) T cells into muscles of mdx mice. A total of a ninety C57BU10ScSn-Dmdmdx/J male mice, 3 weeks of age (+/-3days), were transferred to the in vivo research laboratory in Bar Harbor, Me. Additional ten […] male mice 3 weeks of age (+/-3 days) were also transferred and served as a wild-type control group. The mice were ear notched for identification and housed in ventilated polysulfone cages with HEPA filtered air at a density of 3-4 mice per cage. The animal room was lit entirely with artificial fluorescent lighting on controlled 12 hour light/dark cycle (6 a.m. to 6 p.m. light). […] The animal room was set for 15 air exchanges per hour. Filtered tap water acidified to a pH of 2.8 to 3.2 was provided ad libitum. […] Prior to study initiation, mice were acclimated for 3 days. Mice were tested for grip strength and in the open field at ages 25 and 26 days, and drug regimen was initiated at age 27 days. Mice were monitored twice weekly for clinical observations and body weights. […] 24 hours after the second open field tests, blood was collected by retro-orbital bleeding, and mice were humanely euthanized by CO2 asphyxiation. One triceps surae was collected fresh and processed for immune cell sorting, one tibialis anterior was preserved in RNALater for RNA extraction, one whole hind limb and the diaphragm were fixed in 2% paraformaldehyde overnight at 4° C. for paraffin embedding and histology stains. For immune cell sorting, muscle samples were enzymatically and mechanically dissociated following manufacturer instructions (Skeletal Muscle Dissociation KitCatalog no. 130-098-305, Miltenyi Biotec). Cells were stained with the following antibodies: [table] Stained cells were analyzed on a BD LSR II cytometer and counts of different populations were expressed in percentage of the number of live cells counted.

[4] = system: CD11b mRNA; experiment: mRNA quantification (RT PCR) of CD11b in muscles of mdx mice; assay type: in vivo, mouse
Description: (§5) A total of a ninety C57BU10ScSn-Dmdmdx/J male mice, 3 weeks of age (+/-3days), were transferred to the in vivo research laboratory in Bar Harbor, Me. Additional ten […] male mice 3 weeks of age (+/-3 days) were also transferred and served as a wild-type control group. The mice were ear notched for identification and housed in ventilated polysulfone cages with HEPA filtered air at a density of 3-4 mice per cage. The animal room was lit entirely with artificial fluorescent lighting on controlled 12 hour light/dark cycle (6 a.m. to 6 p.m. light). […] The animal room was set for 15 air exchanges per hour. Filtered tap water acidified to a pH of 2.8 to 3.2 was provided ad libitum. […] Prior to study initiation, mice were acclimated for 3 days. Mice were tested for grip strength and in the open field at ages 25 and 26 days, and drug regimen was initiated at age 27 days. Mice were monitored twice weekly for clinical observations and body weights. […] 24 hours after the second open field tests, blood was collected by retro-orbital bleeding, and mice were humanely euthanized by CO2 asphyxiation. One triceps surae was collected fresh and processed for immune cell sorting, one tibialis anterior was preserved in RNALater for RNA extraction, one whole hind limb and the diaphragm were fixed in 2% paraformaldehyde overnight at 4° C. for paraffin embedding and histology stains. Total RNAs were extracted with a modification of the Trizol method, reverse transcribed, and mRNAs of TGFβ, and the following inflammation markers were quantified by the SYBR green method with GAPDH as a normalizer: […]

[5] = system: lymphoid CD4-CD8- (double negative, DN) T cells; experiment: Cell sorting: recruitment of lymphoid CD4-CD8- (double negative, DN) T cells into muscles of mdx mice; assay type: in vivo, mouse; settings: mdx mice muscle
Description: as §4

[6] = system: Mpeg1 mRNA; experiment: mRNA quantification (RT PCR) of Mpeg1 in muscles of mdx mice; assay type: in vivo, mouse; settings: mdx mice muscle
Description: as §5

[7] = system: CD11b+Ly6Chigh profibrotic myeloid cells (Ly6C+ monocytes); experiment: Cell sorting: recruitment of CD11b+Ly6Chigh profibrotic myeloid cells into muscles of mdx mice; assay type: in vivo, mouse; settings: mdx mice muscle; for % change compared to vehicle (CD11b+Ly6Chigh profibrotic myeloid cells) / % of viable cells (CD11b+Ly6Chigh profibrotic myeloid cells): 4 weeks
Description: as §4

[8] = system: CD53 mRNA; experiment: mRNA quantification (RT PCR) of CD53 in muscles of mdx mice; assay type: in vivo, mouse
Description: as §5

[9] = system: macrophages; experiment: Staining of murine F4/80 antigen in diaphragm sections of mdx mice (macrophage infiltration); assay type: in vivo, mouse; settings: 20 mg/kg po once per day, 6 weeks, 12 week old mdx mice
Description: as §1, §2, §3

[10] = system: Lgals3 mRNA; experiment: mRNA quantification (RT PCR) of Lgals3 in muscles of mdx mice; assay type: in vivo, mouse
Description: as §5

[11] = system: Ly6C1 mRNA; experiment: mRNA quantification (RT PCR) of Ly6C1 in muscles of mdx mice; assay type: in vivo, mouse; settings: mdx mice muscle
Description: as §5

[12] = system: CD48 mRNA; experiment: mRNA quantification (RT PCR) of CD48 in muscles of mdx mice; assay type: in vivo, mouse
Description: as §5

[13] = system: TGFβ mRNA; experiment: mRNA quantification (RT PCR) of pro-fibrotic growth factor TGFβ in muscles of mdx mice; assay type: in vivo, mouse
Description: as §5

[14] = system: IL-6 mRNA; experiment: mRNA quantification (RT PCR) of IL-6 in muscles of mdx mice; assay type: in vivo, mouse; settings: mdx mice muscle
Description: as §5

[15] = system: lymphoid CD4+CD8- T cells; experiment: Cell sorting: recruitment of lymphoid CD4+CD8- T cells into muscles of mdx mice; assay type: in vivo, mouse; settings: mdx mice muscle
Description: as §4

[16] = system: CD11b+ myeloid cells; experiment: Cell sorting: recruitment of CD11b+ myeloid cells into muscles of mdx mice; assay type: in vivo, mouse; settings: mdx mice muscle; for % change compared to vehicle (CD11b+ myeloid cells) / % of viable cells (CD11b+ myeloid cells): 4 weeks
Description: as §4

[17] = system: TNF mRNA; experiment: mRNA quantification (RT PCR) of TNF in muscles of mdx mice; assay type: in vivo, mouse
Description: as §5

[18] = system: T cells; settings: correlated with reduction in muscle necrosis and fibrosis; very early studies; cited from earlier work
[19] = system: eosinophils; settings: DMD / mdx dystrophic muscle, previous studies; cited from earlier work
[20] = 20 mg/kg po twice/day, mdx mice muscle, GAPDH as normalizer
[21] = treatment alone, mdx mouse muscle
[22] = doses as in the table (carbidopa 100, benserazide 20 mg/kg po twice/day; prednisolone 1 mg/kg ip once/day)

Structure (SMILES): NC(CO)C(=O)NNCc1ccc(O)c(O)c1O (stereo not drawn) [Benserazide]
- relative levels of pro- and anti-fibrotic myeloid cells [1]: not affected
- reduction in inflammatory infiltrates compared to vehicle (H & E staining) [2]: ~50%
- % change compared to vehicle (CD11b+Ly6Clow anti-fibrotic myeloid cells) ([3]; 7 mg/kg po twice/day): −16.5%
- % of viable cells (CD11b+Ly6Clow anti-fibrotic myeloid cells) ([3]; 7 mg/kg po twice/day): 22.7%
- % change compared to vehicle (CD11b+Ly6Clow anti-fibrotic myeloid cells) ([3]; 20 mg/kg po twice/day): −27.9%
- % of viable cells (CD11b+Ly6Clow anti-fibrotic myeloid cells) ([3]; 20 mg/kg po twice/day): 19.6* %
- inhibition of recruitment of anti-fibrotic myeloid cells compared with vehicle ([3]; higher dose of benserazide, statistically significant): 27.9%
- CD11b mRNA level [4, 20]: 1.12
- effect on the level of CD11b mRNA [4, 21]: not significantly affected
- % change compared to vehicle (lymphoid CD4-CD8- DN T cells) ([5]; 20 mg/kg po twice/day, 4 weeks): −44.8%
- % of viable cells (lymphoid CD4-CD8- DN T cells) ([5]; 20 mg/kg po twice/day, 4 weeks): 18** %
- reduction of recruitment of lymphoid DN T cells compared with vehicle [5, 22]: over 50%
- effect on Mpeg1 mRNA level [6]: No effects
- % change compared to vehicle (CD11b+Ly6Chigh profibrotic myeloid cells) ([7]; 7 mg/kg po twice/day): −11.5%
- % of viable cells (CD11b+Ly6Chigh profibrotic myeloid cells) ([7]; 7 mg/kg po twice/day): 6.49%
- % change compared to vehicle (CD11b+Ly6Chigh profibrotic myeloid cells) ([7]; 20 mg/kg po twice/day): −26.9%
- % of viable cells (CD11b+Ly6Chigh profibrotic myeloid cells) ([7]; 20 mg/kg po twice/day): 5.36%
- effect on recruitment of profibrotic myeloid cells compared with vehicle ([7]; both doses): little, if any, statistically significant effect
- CD53 mRNA level [8, 20]: 0.95
- effect on the level of CD53 mRNA [8, 21]: not significantly affected
- reduction in macrophage infiltration compared to vehicle (F4/80 staining) [9]: ~50%
- Lgals3 mRNA level [10, 20]: 0.95
- effect on the level of Lgals3 mRNA [10, 21]: no significant effect
- effect on Ly6C1 mRNA level [11]: No effects
- CD48 mRNA level [12, 20]: 0.85
- effect on the level of CD48 mRNA [12, 21]: no significant effect
- % change compared to vehicle (TGFβ mRNA) ([13]; 20 mg/kg po twice/day, mdx mice muscle): −34.7%
- TGFβ mRNA [13, 20]: 0.79
- reduction of the TGFβ mRNA level (fraction in words) ([13]; treatment alone, muscle of mdx mice): over a third
- effect on IL-6 mRNA level [14]: No effects
- % change compared to vehicle (lymphoid CD4+CD8- T cells) ([15]; 20 mg/kg po twice/day, 4 weeks): −37.0%
- % of viable cells (lymphoid CD4+CD8- T cells) ([15]; 20 mg/kg po twice/day, 4 weeks): 9.2* %
- reduction of recruitment of lymphoid CD4+CD8- T cells compared with vehicle [15, 22]: over 50%
- % change compared to vehicle (CD11b+ myeloid cells) ([16]; 7 mg/kg po twice/day): −13.7%
- % of viable cells (CD11b+ myeloid cells) ([16]; 7 mg/kg po twice/day): 31.4%
- % change compared to vehicle (CD11b+ myeloid cells) ([16]; 20 mg/kg po twice/day): −32.4%
- % of viable cells (CD11b+ myeloid cells) ([16]; 20 mg/kg po twice/day): 24.6* %
- reduction of CD11b+ myeloid cell recruitment compared with vehicle ([16]; higher dose of benserazide): approximately one-third
- TNF mRNA level [17, 20]: 0.79
- effect on the level of TNF mRNA [17, 21]: No significant effect

Structure (SMILES): C[C@]12C=CC(=O)C=C1CC[C@@H]1[C@@H]2C(=O)C[C@@]2(C)[C@H]1CC[C@]2(O)C(=O)CO [Prednisone, prednisone]
- effect on T cells in DMD patients [18]: reduction in T cells
- effect on eosinophil infiltration [19]: reduce eosinophil infiltration
